In patent US20090142753A1, “Compositions and methods for detecting compounds to treat a neurological disorder” (Caritas St. Elizeth Medical Center of Boston, Inc., priority 2005, published 2009):

What was measured:
human DJ-1 promoter [1] = assay: DJ-1 promoter luciferase reporter assay in SH-SY5Y cells stably expressing −1000DJ-Luc; assay type: cell-based; conditions: 24 hours; for DJ-1 promoter-driven luciferase activity normalized to β-galactosidase activity: SH-SY5Y cells stably expressing −1000DJ-Luc, increasing doses; for Luciferase expression directed by the human DJ-1 promoter, fold change relative to untreated: SH-SY5Y −1000DJ-Luc vs 0DJ-Luc, normalized to total protein content (FIG. 6)
Description: (§1) To develop a cell-based assay system where one can identify agents that transcriptionally activate DJ-1, a plasmid vector (−1000DJ-Luc) was made that expressed a luciferase reporter gene directed by the human DJ-1 promoter containing 1000 base pairs upstream and 65 base pairs downstream sequences (−1000 to +65) of the transcription initiation site (FIG. 1). A19 base pair sequence containing +46 to +65 of the DJ-1 gene was fused to the luciferase gene to generate the control plasmid (0DJLuc). A neomycin resistance gene was inserted into the vectors as a selection marker. Next, human dopaminergic SH-SY5Y neuroblastoma cells were transfected with either −1000DJLuc or 0DJLuc selected for stably transfected clones. A plasmid encoding β-galactosidase gene was co-transfected to serve as an internal control for luciferase expression.
To confirm the stable expression of the reporter genes and to evaluate these cells as devices for drug discovery, stably transfected SH-SY5Y cells were treated with increasing doses of H2O2. This agent has been reported to upregulate DJ-1. See for example Reference 21. Twenty-four hours after treatment, cells were harvested to analyze luciferase and β-galactosidase activities. Toxicity induced by the higher dose H2O2 was corrected by reduced β-galactosidase activities. […] SH-SY5Y cells stably expressing −1000DJ-Luc and a plasmid encoding CMV-β-galactosidase were treated with the indicated amount of H2O2 for 24 hours. Luciferase and β-galactosidase activities were then determined. Because cellular toxicity increases with increasing H2O2 dosages, luciferase activity was normalized to β-galactosidase activity, with the value of untreated sample designated as 100. The values shown represent the average of 2 experiments carried out in triplicate. (P<0.05 by Anova). The Luciferase activity in control cell lines expressing 0DJ-Luc was not affected by H2O2. To further validate the cells as tools for compound screening, a rational approach to selecting candidate compounds that can transactivate DJ-1 gene based on the analysis of the human DJ-1 promoter was taken.
SH-SY5Y cells stably expressing −1000DJ-Luc were treated with increasing doses of TSA (FIG. 3A) or sodium butyrate (FIG. 3B) for 24 hours. Results were analyzed as described in FIG. 2. DJ-1 promoter-driven luciferase activity was then assayed.
A. Plasmids and Chemicals. DJ-1 promoter sequences from −1000 to +65 relative to the transcriptional initiation site was amplified from pDJ-1(1)luc by PCR with Xho I and Hind III sites using the following primers: DJ-1 F, 5′ […] (SEQ ID NO:); DJ-1 R, 5′ […] (SEQ ID NO:). The PCR product was then inserted into pGL3basic vector (Promega), between Xho I and Hind III sites to generate 1000DJ-Luc vector. For 0DJ-Luc, the sequences from +46 to +65 relative to the transcriptional initiation site were inserted between XhoI and Hind III sites instead. To facilitate selection, a neomycin resistant gene directed by the SV40 promoter with BamHI and Xho I linker was inserted between the BamHI and SalI sites of pGL3 basic, with the original SalI site abolished after ligation. pON260 encoding β-galactosidase gene was described previously. H2O2, Trichostatin A (TSA), and sodium butyrate were obtained from Sigma.
B. Cells and Transfection. The human neuroblastoma cell line SH-SY5Y was plated in 6 well dish at 70% confluency and co-transfected with 150 ng of pON260 and 25 fmol of −1000DJ-Luc or 0DJ-Luc per well with Transfectin reagent (Bio-Rad). 24 hours after transfection, cells were re-plated in 10 cm dishes and cultured in medium with 800 μg/ml of Geneticin (G418, Invitrogen). Three days later, cells were grown in medium containing 400 μg/ml of Geneticin. Surviving clones were cultured, and expanded, and subjected to analysis.
C. Luciferase and β-galactosidase Assays. Cells were treated with the indicated doses of H2O2, TSA or sodium butyrate for 24 hours before being lysed in reporter lysis buffer (Promega). […]

DJ-1 protein [2] = assay: Western blot of endogenous DJ-1 protein in SH-SY5Y cells; assay type: cell-based, human; conditions: for Total endogenous DJ-1 protein levels: SH-SY5Y cells stably expressing −1000DJ-Luc, 24 hours, Western blot (FIG. 4); for DJ-1 protein levels: SH-SY5Y cells, TSA 0, 50, 100 ng/ml, sodium butyrate 0, 2.5, 5, 10 mM (FIG. 6C)
Experimental: SHSY5Y cells stably expressing −1000DJ-Luc were treated with TSA or sodium butyrate for 24 hours. Total proteins were then extracted and analyzed by SDS-PAGE. After transfer, the membrane was first probed with a mouse monoclonal anti-DJ-1 antibody (1:1000) to reveal DJ-1 expression (Top panel). The membrane was then stripped and re-probed with a goat polyclonal anti-actin (1:1000). Therefore, and without wishing to be bound to theory, it is believed that by activating an anti-oxidative and neuroprotective protein DJ-1, HDAC inhibitors may prevent neuronal cell death in Parkinson disease or other neurodegenerative diseases.
SHSY5Y cells stably expressing −1000DJ-Luc were treated with TSA or sodium butyrate for 24 hours. Total proteins were extracted and analyzed by SDS-PAGE. After transfer, the membrane was first probed with a mouse monoclonal anti-DJ-1 antibody (1:1000) to reveal DJ-1 expression (Top panel). The membrane was then striped and re-probed with a goat polyclonal anti-actin (1:1000).
(§2) SH-SY5Y cells (FIG. 6C), human primary neuronal cultures containing cortical neurons and glia (FIG. 6D), or mouse embryonic stem cells (FIG. 6D) were treated with increasing doses of TSA (0, 50, or 100 ng/ml) and sodium butyrate (0, 2.5, 5, or 10 mM). The cells were then lysed. The protein concentration of each sample was determined using a Protein DC assay (Bio-Rad). Equal amount of proteins (30-40 μg) were resolved by 4-20% Tris-glycine SDS-PAGE in each experiment. Proteins were transferred onto nitrocellulose membranes, and probed with antibodies against DJ-1 (Stressgen) or β-actin (Santa Cruz). DJ-1 protein was then visualized using chemiluminescent detection, ECL WESTERN BLOTTING DETECTION SYSTEM (Amersham, Piscataway, N.J.), according to the manufacturer's instructions.
Human SH-SY5Y cells, a primary neuronal culture containing dopaminergic neurons and glia, or mouse embryonic stem cells were treated with selected HDAC inhibitors for 24 hours. Cells were then lysed in RIPA-DOC buffer (50 mM Tris, pH 7.2; 150 mM NaCl; 1% Triton-X100, 1% deoxycholate and 0.1% SDS) with 1× fresh protease inhibitor cocktail. For analysis of DJ-1 protein levels in mouse brains, C57BL6 mice were injected intraperitoneally with sodium butyrate (1200 mg/kg) or vehicle (PBS) daily for 14 days. Mice were euthanized and the cortical and midbrain tissues were collected, and snap frozen in liquid nitrogen. Tissues were disrupted in RIPA-DOC buffer with 1× protease inhibitor using Dounce homogenizers. Protein concentration of each sample was determined using Protein DC assay (Bio-Rad). Equal amounts of proteins (30-40 μg) were resolved by 4-20% Tris-glycine SDS-PAGE in each experiment. […]

DJ-1 protein [3] = assay: Western blot of DJ-1 protein in human primary neuronal cultures; assay type: cell-based; conditions: human primary neuronal cultures containing cortical neurons and glia, increasing doses (FIG. 6D)
Experimental: as §2
(§3) Human SH-SY5Y cells, a primary neuronal culture containing dopaminergic neurons and glia, or mouse embryonic stem cells were treated with selected HDAC inhibitors for 24 hours. Cells were then lysed in RIPA-DOC buffer (50 mM Tris, pH 7.2; 150 mM NaCl; 1% Triton-X100, 1% deoxycholate and 0.1% SDS) with 1× fresh protease inhibitor cocktail. For analysis of DJ-1 protein levels in mouse brains, C57BL6 mice were injected intraperitoneally with sodium butyrate (1200 mg/kg) or vehicle (PBS) daily for 14 days. […] Protein concentration of each sample was determined using Protein DC assay (Bio-Rad). […]

DJ-1 protein [4] = assay: Western blot of DJ-1 protein in mouse embryonic stem cells; assay type: cell-based; conditions: increasing doses (FIG. 6D)
Experimental: as §2, §3

human DJ-1 promoter [5] = assay: DJ-1 luciferase assay in 96-well high throughput format; assay type: cell-based; conditions: 1000DJ-Luc SH-SY5Y cells, 96-well format, 5 μM, 24 hours, N=12
Experimental: FIG. 8 is a graph showing the results of a DJ-1 luciferase assay configured as a high throughput screen. Equal numbers of SH-SY5Y cells stably expressing the 1000DJ-Luc construct were plated in replicate (N=12) with 5 μM pergolide, bromocriptine or SAHA for 24 hours and then assayed for luciferase activity. The assay produced a Z′ value of 0.790 using SAHA as the positive and bromocriptine as the negative control.
The assay described above was carried out in a 96-well format. Twelve replicate samples of 1000DJ-Luc cells were each treated with pergolide or bromocriptine, which served as negative controls, or with SAHA, a compound known to increase DJ-1 expression. 5 μM of each compound was added to the cells in a 30 μl volume. Cells were lysed in 100 μl/well of passive lysis buffer, and 20 μl aliquots of the cell lysates were then used for a luciferase assay. Bromocriptine and pergolide are dopamine receptor agonists used for the treatment of motor symptoms in Parkinson's disease. […] In fact, levels of luciferase activity observed with these compounds were very similar to levels present in untreated control cells. […] A Z′ value was calculated using bromocriptine as the negative control. […] See “A Simple Statistical Parameter for Use in Evaluation and Validation of High Throughput Screening Assays” Zhang J H, Chung T D, Oldenburg K R, J Biomol Screen. 1999; 4(2):67-73.

DJ-1 mRNA = DJ-1 mRNA by quantitative real-time PCR in SH-SY5Y cells; assay type: cell-based, human; conditions: 5 mM, 1-12 hours after treatment
Experimental: SH-SY5Y cells were treated with 5 mM of sodium butyrate. Cells were then harvested for mRNA one, two, four, eight, and twelve hours after treatment. DJ-1 mRNA levels were quantitated using real-time PCR. DJ-1 mRNA levels were normalized to internal control β-actin mRNA levels.
Total RNA was extracted from the cells treated with sodium butyrate at various time points using Trizol reagent (Invitrogen). The total RNA was then purified with the RNAeasy kit (Qiagen). The quality of the RNA was confirmed using agarose (1%) gel electrophoresis. RNA (1 ng) from each sample was then amplified using Roche LightCycler and Qiagen QuantiTect™ SYBR Green RT-PCR kit according to the manufacturer's instructions. This protocol included: reverse transcription at 50° for 20 minutes, initial activation of Hotstar Taq polymerase at 95° C. for 15 minutes, then 40 cycles of 3-step cycling, including denaturation at 94° C. for 15 seconds; annealing at 58° C. for 20 seconds; extension at 72° C. for 20 sec). A fluorescence detection step was carried out at the end of each cycle. Melting curve analysis (0.1° C. per sec ramping rate, 60-95° C.) was performed with a continuous fluorescence measurement following the 40th cycle. β-actin mRNA was amplified in parallel as an internal control.

DJ-1 protein [6] = assay: DJ-1 protein levels in mouse brain in vivo (immunoblot); conditions: C57BL6 mice, 1200 mg/kg intraperitoneally daily for fourteen days, cortical and midbrain tissues
Experimental: For analysis of DJ-1 protein levels in mouse brains, C57BL6 mice were injected intraperitoneally with vehicle (PBS) or sodium butyrate (1200 mg/kg) daily for fourteen days. Mice were euthanized and the cortical and midbrain tissues were collected, and snap frozen in liquid nitrogen. Tissues were disrupted in RIPA-DOC buffer with 1× protease inhibitor using a Dounce homogenizer. The protein concentration of each sample was determined using a Protein DC assay (Bio-Rad). Equal amounts of proteins (30-40 μg) were resolved by 4-20% Tris-glycine SDS-PAGE in each experiment. Proteins were transferred onto nitrocellulose membranes, and probed with antibodies against DJ-1 (Stressgen) or β-actin (Santa Cruz).
as §3

[7] = test system: 0DJ-Luc control plasmid (+46 to +65 of the DJ-1 gene); assay: Luciferase activity in control cell lines expressing 0DJ-Luc; assay type: cell-based, human; conditions: SH-SY5Y 0DJ-Luc cells, 24 hours
Description: as §1
To confirm the stable expression of the reporter genes and to evaluate these cells as devices for drug discovery, stably transfected SH-SY5Y cells were treated with increasing doses of H2O2. This agent has been reported to upregulate DJ-1. See for example Reference 21. Twenty-four hours after treatment, cells were harvested to analyze luciferase and β-galactosidase activities. […] Luciferase and β-galactosidase activities were then determined. […]
C. […] Luciferase and β-galactosidase activities were determined using assay kits following manufacturer's protocol (Promega).

SMILES | DJ-1 promoter-driven luciferase activity normalized to β-galactosidase activity (human DJ-1 promoter [1]) | Luciferase expression directed by the human DJ-1 promoter, fold change relative to untreated (human DJ-1 promoter [1]) | Total endogenous DJ-1 protein levels (DJ-1 protein [2]) | DJ-1 protein levels (DJ-1 protein [2]) | DJ-1 protein levels (DJ-1 protein [3]) | DJ-1 protein levels (DJ-1 protein [4]) | Luciferase activity (human DJ-1 promoter [5]) | DJ-1 mRNA levels normalized to β-actin mRNA (DJ-1 mRNA) | DJ-1 protein levels in mouse brain (DJ-1 protein [6]) | Luciferase activity in control cell lines expressing 0DJ-Luc [7]
CC(/C=C/C(=O)NO)=C\[C@@H](C)C(=O)c1ccc(N(C)C)cc1 [TSA, Trichostatin A] | significantly activated the DJ-1 promoter | specifically activate luciferase expression | increased markedly | increased DJ-1 protein levels in a dose dependent fashion | increased DJ-1 protein levels in a dose dependent fashion | increased DJ-1 protein levels in a dose dependent fashion | – | – | – | –
O=C(CCCCCCC(=O)Nc1ccccc1)NO [SAHA, suberoylanilide hydroxamic acid] | – | specifically activate luciferase expression | – | – | – | – | substantial levels of luciferase activity | – | – | –
CCCC(=O)[O-].[Na+] [sodium butyrate] | significantly activated the DJ-1 promoter | specifically activate luciferase expression | increased markedly | increased DJ-1 protein levels in a dose dependent fashion | increased DJ-1 protein levels in a dose dependent fashion | increased DJ-1 protein levels in a dose dependent fashion | – | transient increase in DJ-1 mRNA levels | increased DJ-1 protein levels in mouse brain in vivo | –
CCCN1C[C@H](CSC)C[C@@H]2c3cccc4[nH]cc(c34)C[C@H]21 [pergolide] | – | – | – | – | – | – | little luciferase activity | – | – | –
OO [H2O2] | activated the human DJ-1 promoter in a dose dependent manner | – | – | – | – | – | – | – | – | not affected
